The text below walks through data of patent US4877785A, “Non-peptidyl beta-succinamidoacyl aminodiols as anti-hypertensive agents” (G. D. Searle & Co., priority 1987, dated 1989).

Where a SMILES comes first, the peptide text is derived from it. [ ]: non-standard residue; d: D form. The star is where a group is joined. Sta = CC(C)C[C@H](N)[C@@H](O)CC(=O)O; Isovaleryl = CC(C)CC(=O)*

For test [1], the target named is T1, Human renin (Homo sapiens, UniProt P00797).
T1 construct: purchased National Institute for Biological Standards, London
T1 sequence (P00797 67-406): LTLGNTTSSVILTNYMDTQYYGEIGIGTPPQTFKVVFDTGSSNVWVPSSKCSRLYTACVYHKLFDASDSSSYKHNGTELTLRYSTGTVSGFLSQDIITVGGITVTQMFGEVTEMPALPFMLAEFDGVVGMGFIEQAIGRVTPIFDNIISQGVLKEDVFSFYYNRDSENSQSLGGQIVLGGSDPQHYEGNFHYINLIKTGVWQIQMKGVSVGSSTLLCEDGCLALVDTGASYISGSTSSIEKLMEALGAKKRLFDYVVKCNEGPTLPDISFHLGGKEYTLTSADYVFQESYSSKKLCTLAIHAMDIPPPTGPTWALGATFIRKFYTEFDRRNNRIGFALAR
In words: human renin inhibition test in vitro (angiotensin I determined by radioimmunoassay). It counts as biochemical. To be noted: pH 7.4, 37° C., two hours, human plasma. The protocol: Compounds of Formula I were evaluated as inhibitors of human renin in an in vitro assay, as follows: This human renin inhibition test has been previously described in detail [Papaioannou, et al., Clinical and Experimental Hypertension, A7(9), 1243-1257 (1985)]. Human renin was obtained from the National Institute for Biological Standards, London. In a total volume of 0.25 mL 100 mM Tris-acetate buffer at pH 7.4, 25×10^-6 Goldblatt units of renin, 0.05 mL of plasma from human volunteers taking oral contraceptives, 6.0 mM sodium EDTA, 2.4 mM phenylmethyl sulfonyl fluoride, 1.5 mM 8-hydroxyquinoline, 0.4 mg/mL BSA, and 0.024 mg/mL neomycin sulfate were incubated for two hours at 37° C. in the presence or absence of renin inhibitors. The produced angiotensin I was determined by radioimmunoassay (New England Nuclear kit). Compounds of formula I to be assayed were solubilized in either ethyl alcohol or DMSO and diluted with 100 mM Tris-acetate buffer at pH 7.4 to the appropriate concentration. The final concentration of organic solvent in the reaction mixture was less than 1%. Control incubations at 37° C. were used to correct for effects of organic solvent on renin activity.

Test [2] has as its system cathepsin D. To be noted: cited from earlier work.
The test system of test [3] is hog renin. To be noted: after injection of hog renin into nephrectomized rats; cited from earlier work.
The test system of test [4] is renin. To be noted: cited from earlier work.
Test [5] deals with pepsin. To be noted: cited from earlier work.

As to `CC(C)C[C@H](O)[C@H](O)[C@H](CC1CCCCC1)NC(=O)C(C)CNC(=O)C(CC(=O)N1CCOCC1)Cc1cccc2ccccc12` (single isomer, unassigned; isomer a) [Example 11], 330 nM corresponded to half-maximal inhibition in test [1] (IC50).

For the molecule `CC(C)C[C@H](O)[C@H](O)[C@H](CC1CCCCC1)NC(=O)C(C)CNC(=O)C(CC(=O)N1CCOCC1)Cc1cccc2ccccc12` (single isomer, unassigned; isomer b) [Example 13], the IC50 – broadly, the concentration needed to halve the response being measured – in test [1] is 1000 nM.

For `CC(C)CC(=O)N[C@H](C(=O)N[C@H](C(=O)N[C@@H](CC(C)C)[C@@H](O)CC(=O)N[C@@H](C)C(=O)N[C@@H](CC(C)C)[C@@H](O)CC(=O)O)C(C)C)C(C)C` [pepstatin] (Isovaleryl-VV[Sta]A[Sta]-OH), the “inhibition of cathepsin D” value in test [2] is reported as “inhibitor”. Also, the “reduction of blood pressure in vivo” value in test [3] is on record as “found to reduce blood pressure in vivo”. In addition, in test [4], the inhibition of renin entry is given as “inhibitor”. Moreover, the inhibition of pepsin entry in test [5] is given as “inhibitor”.
